Data taken from patent publication US11407792B2, “Regulating electron flow using fragmented proteins” (WILLIAM MARSH RICE UNIVERSITY, priority 2017, dated 2022).

B1: SIR: Zea mays Fd-dependent sulfite reductase, electron acceptor (protein, UniProt O23813 51-635, looked up)
Sulfite reductase …: VSAPAKKDASEVKRSKVEIIKEKSNFLRYPLNEELVSEAPNINESAVQLIKFHGSYQQTDRDVRGQKNYSFMLRTKNPCGKVPNQLYLAMDTLADEFGIGTLRLTTRQTFQLHGVLKKNLKTVLSTVIKNMGSTLGACGDLNRNVLAPAAPYVKKDILFAQQTAENIAALLTPQSGAYYDLWVDGEKIMSAEEPPEVTKARNDNSHGTNFPDSPEPIYGTQYLPRKFKVAVTAAGDNSVDILTNDIGVVVVSDDAGEPIGFNIYVGGGMGRTHRVETTFPRLADPLGYVPKEDILYAIKAIVVTQRENGRRDDRKYSRMKYMIDRWGIDRFRAEVEKYYGKKFESFRPLPEWQFNSYLGWQEQGDGKLFYGVHVDNGRVGGQAKKTLREIIEKYNLDVSITPNQNLILCGIDQAWREPITTALAQAGLLEPKDVDPLNLTAMACPALPLCPLAQTEAERGILPILKRIRAVFNKVGIKDSESVVVRITGCPNGCARPYMAELGFVGDGPKSYQIWLGGTPNQSTLAESFMDKVKLDDIEKVLEPLFTYWNGTRQEGESFGSFTNRTGFDKLKEVVNKWAESPSAA

Tests used:
[1] = test system: sFd-35-ER; assay: Complementation of E. coli EW11 growth by sFd-35-ER with 4-HT and other estrogen receptor modulators; format: cell-based, Escherichia coli; details: for Activation of sFd-35-ER ET (growth complementation): agonists, antagonists and an endocrine disruptor; for Effect of estrogen receptor modulators on complementation of E. coli EW11 by sFd-35-ER, compared to DMSO alone: modulator 50 μM, 200 ng/mL aTc
Protocol: Growth assay. For all growth experiments, E. coli EW11 were freshly transformed with two plasmids, one encoding the e-donor and acceptor pair (FNR and SIR) and the other encoding either a native Fd, a C42A mutant of Ml Fd that is unable to coordinate a 2Fe-2S cluster, or an engineered Fd. Starter cultures were inoculated using single colonies obtained by selecting for colonies containing both plasmids on LB-agar plates. These starter cultures were grown in deep-well 96-well plates for 18 hours at 37° C. in 1 mL of a non-selective modified M9 medium (M9c), which contained sodium phosphate, dibasic (6.8 g/L), sodium phosphate, monobasic (3 g/L), sodium chloride (0.5 g/L), ammonium chloride (1 g/L), calcium chloride (0.1 mM), magnesium sulfate (10 mM), ferric citrate (24 mg/L), p-aminobenzoic acid (2 mg/L), inositol (20 mg/L), adenine (5 mg/L), uracil (20 mg/L), tryptophan (40 mg/L), tyrosine (1.2 mg/L), and the remaining 18 amino acids (80 mg/L each). For auxotroph complementation analysis, starter cultures that had been grown to stationary phase in M9c were diluted ˜1:100 using a 96-well replicator pin into 100 μL of a selective modified M9 medium (M9sa), which is identical to M9c but lacks cysteine and methionine. […] Optical density (OD) measurements were taken every 10 minutes. To select for the Fd and e-donor/acceptor plasmids, all growth steps included chloramphenicol and streptomycin at 34 μg/mL and 100 μg/mL, respectively.
To test whether this domain-insertion strategy can be used to diversify the chemical regulation of sFd-35, the ligand-binding domain (LBD) of the human estrogen receptor (ER) was inserted after residue 35 to create sFd-35-ER (FIG. 26E).
The activity of sFd-35-ER was evaluated by expressing this protein using an aTc-inducible promoter (FIG. 31B). […] This protein was also expressed as a fusion to RFP (sFd-35-ER-RFP) to evaluate how 4-HT affects protein expression.
To evaluate how these different modulators affect sFd-35-ER ET, sFd-35-ER growth complementation was evaluated in the presence of agonists, antagonists, and an endocrine disruptor (FIG. 32D).

[2] = Hirasawa et al., 2004; cited from earlier work

Molecule | Activation of sFd-35-ER ET (growth complementation) [1] | Effect of estrogen receptor modulators on complementation of E. coli EW11 by sFd-35-ER, compared to DMSO alone [1] | [4Fe-4S] E° [2] [mV] | siroheme potential [2] [mV]
CC(C)(c1ccc(O)cc1)c1ccc(O)cc1 [bisphenol-A] | activated | significantly enhance growth |  | 
CC[C@H](c1ccc(O)cc1)[C@@H](CC)c1ccc(O)cc1 [hexestrol] | not activated | do not significantly enhance growth |  | 
Oc1ccc2c(c1)CC[C@H](c1ccccc1)[C@@H]2c1ccc(OCCN2CCCC2)cc1 [lasoxifene] | activated | significantly enhance growth |  | 
B1 |  |  | −415 | −285
